Data on two substances can be found in patent publication US20140162974A1, “METHODS FOR MODULATION OF PHOSPHORUS AND FGF23” (Luitpold Pharmaceuticals, Inc., priority 2012, published 2014).

Entries after “also recorded” stand apart in the source; their conditions may differ.

Assay [1] concerns hemoglobin, ferritin, TSAT, hepcidin. Kind of assay: Example 3 trial: erythropoiesis and iron parameters. The arrangement: Mean increase in ferritin from baseline to highest value: unit not given here. Format: in vivo, human. The conditions noted are these: for Mean increase in hepcidin from baseline to highest value / effect of a single dose on hemoglobin and iron indices / proportion of group in which hemoglobin increased by 2.0 g/dL: in vivo; for Hemoglobin increase ≧2.0 g/dL, n (%): intention-to-treat in safety population, anytime to day 35; for Mean increase in ferritin from baseline to highest value / Mean increase in hemoglobin from baseline to highest value / Mean increase in transferrin saturation from baseline to highest value: mean ± standard error; for effect on TSAT and serum hepcidin levels: p≦0.001; for serum hepcidin levels by day 7: remained significantly elevated on day 35. How it is done: (§1) Study visits were on Days 0 (when iron was infused), 1 (24 hours after iron infusion), 7, 14, and 35. The primary objectives were to determine the effect of iron deficiency on cFGF23 and iFGF23 levels and the effect of intravenous iron on iFGF23 and cFGF23 levels.
(§2) Randomization occurred centrally via a fax-based system. […] The complete dose was infused over 15 minutes on day 0. […] An initial test dose of 25 mg was administered slowly over 5 minutes.
(§3) Laboratory testing of blood and three-hour urine collections was performed at the screening visit and on study days 0 (when iron was infused), 1 (24 hours after iron infusion), 7, 14, and 35 (see e.g., FIG. 2A). Any subject who experienced a reduction in serum phosphate below the normal range after day 0 underwent additional phosphate measurements at 14 day intervals following day 35 until the level returned to the normal reference range. Safety evaluations of all subjects included ascertainment of adverse events, physical examinations at all study visits, and laboratory assessments. Any subject who withdrew from the study received a follow-up phone call to ascertain adverse events 30 days after they received study drug.
The pre-specified primary endpoints were changes in blood and urine markers of phosphate and bone metabolism among the evaluable population, defined as those subjects with baseline and at least one post-randomization set of FGF23 and blood and urinary phosphate levels. Secondary endpoints included the proportion of subjects achieving a hemoglobin increase […] anytime between baseline and day 35, and the change from baseline to highest hemoglobin, ferritin, and TSAT anytime during the 35-day study period. Additional safety endpoints included incidence, severity, and seriousness of adverse events, and incidence of treatment-emergent abnormal clinical laboratory values in the safety population, defined as all subjects who received the study drug regardless of subsequent laboratory testing.
Blood and urine samples were sent to a central laboratory for analysis (Covance Central Laboratory Service, Indianapolis, Ind.). Hemoglobin, blood counts, iron indices, electrolytes, and serum and urinary phosphate and creatinine were measured with standard, automated, multi-analyte techniques. Urinary fractional excretion of phosphate (FEPi) was calculated from the three-hour, morning urine collections as urinary phosphate x serum creatinine/serum phosphate x urinary creatinine. Serum levels of 25-hydroxyvitamin D and 1,25-dihydroxyvitamin D were measured in duplicate by radioimmunoassay (DiaSorin, Stillwater, Minn.) with intra-assay coefficients of variation (CV)<11.6%. Plasma C-terminal FGF23 (cFGF23) was measured in duplicate in EDTA-plasma samples using a human FGF23 immunometric assay capable of detecting both the intact peptide and its C-terminal fragments (Immutopics, San Clemente, Ca) with intra-assay CV≦3.8%. Because cFGF23 testing was performed in parallel with rolling enrollment and follow-up, all cFGF23 assay plates tested combinations of baseline and post-intervention samples from multiple study participants. Serum intact FGF23 (iFGF23) was measured in batches of baseline and post-intervention samples from multiple study participants at study end using an immunometric assay that detects the intact peptide exclusively (Kyowa Medex Company, Shizuoka, Japan) with intra-assay CV<2.7%. Serum hepcidin levels were measured on days 0, 7, and 35 using an enzyme-linked immunosorbent assay (Intrinsic LifeSciences, La Jolla, Calif.) with intra-assay CV≦19%. Urinary amino acids, glucose, albumin, and beta 2 microglobulin were measured to test for the possibility of global proximal tubular dysfunction. Urinary deoxypyridinoline cross link, and serum osteocalcin and bone-specific alkaline phosphatase were measured to assess bone turnover. […]

In another assay the test system is intact FGF23 (iFGF23). In words: Example 3 trial: serum intact FGF23. Type of assay: in vivo, human. The conditions noted are these: for effect on iFGF23 levels: by day 1 (24 hours); for Intact FGF23, Day 1 / Intact FGF23, Day 7 / Intact FGF23, Day 14 / Intact FGF23, Day 35: mean ± standard error, unit from the 3rd table. How it is done: as §1, §2, §3
Blood and urine samples were sent to a central laboratory for analysis (Covance Central Laboratory Service, Indianapolis, Ind.). Hemoglobin, blood counts, iron indices, electrolytes, and serum and urinary phosphate and creatinine were measured with standard, automated, multi-analyte techniques. Urinary fractional excretion of phosphate (FEPi) was calculated from the three-hour, morning urine collections as urinary phosphate x serum creatinine/serum phosphate x urinary creatinine. Serum levels of 25-hydroxyvitamin D and 1,25-dihydroxyvitamin D were measured in duplicate by radioimmunoassay (DiaSorin, Stillwater, Minn.) with intra-assay coefficients of variation (CV)<11.6%. Plasma C-terminal FGF23 (cFGF23) was measured in duplicate in EDTA-plasma samples using a human FGF23 immunometric assay capable of detecting both the intact peptide and its C-terminal fragments (Immutopics, San Clemente, Ca) with intra-assay CV≦3.8%. Because cFGF23 testing was performed in parallel with rolling enrollment and follow-up, all cFGF23 assay plates tested combinations of baseline and post-intervention samples from multiple study participants. Serum intact FGF23 (iFGF23) was measured in batches of baseline and post-intervention samples from multiple study participants at study end using an immunometric assay that detects the intact peptide exclusively (Kyowa Medex Company, Shizuoka, Japan) with intra-assay CV<2.7%. Serum hepcidin levels were measured on days 0, 7, and 35 using an enzyme-linked immunosorbent assay (Intrinsic LifeSciences, La Jolla, Calif.) with intra-assay CV≦19%. Urinary amino acids, glucose, albumin, and beta 2 microglobulin were measured to test for the possibility of global proximal tubular dysfunction. Urinary deoxypyridinoline cross link, and serum osteocalcin and bone-specific alkaline phosphatase were measured to assess bone turnover.
Baseline characteristics are presented as mean±standard error for continuous variables and as proportions for categorical variables. The association between iron indices and baseline and change in FGF23 levels was assessed with Spearman correlations. Restricted maximum likelihood-based repeated measures analyses (linear mixed models) that considered the effects of treatment, visit, and treatment x time interaction, with baseline values treated as a fixed covariate were used for the primary analyses of mean changes from baseline in continuous markers of phosphate homeostasis. The models employed unstructured covariance structures without imputing missing values. All outcome variables that were not normally distributed were analyzed after natural log-transformation. […]

As for iron dextran [reference compound], in assay [1], the “Mean increase in hepcidin from baseline to highest value” was determined as 77.8 ng/mL; the “effect of a single dose on hemoglobin and iron indices” value is recorded as “significantly increase”; the “proportion of group in which hemoglobin increased by 2.0 g/dL” value is on record as 53%; the “Hemoglobin increase ≧2.0 g/dL, n (%)” value is given as 16 (53) n (%). Also, in assay [1], the “Mean increase in ferritin from baseline to highest value” is listed as 189 ± 21; the “Mean increase in hemoglobin from baseline to highest value” stood at 2.2 ± 0.2 g/dL; the “Mean increase in transferrin saturation from baseline to highest value” is reported as 44 ± 3.0%; the “effect on TSAT and serum hepcidin levels” value is “increased TSAT and serum hepcidin levels significantly”. Besides, in assay [1], the “serum hepcidin levels by day 7” value was “significantly increased”. Also, the “Intact FGF23, Change from baseline” value in the assay with intact FGF23 (iFGF23) (Day 1) is listed as −13.4%. The “Intact FGF23, Change from baseline” value in the assay on intact FGF23 (iFGF23) (Day 7) is recorded as −4.4%. Moreover, the “Intact FGF23, Change from baseline” value in the assay with intact FGF23 (iFGF23) (Day 14) is −1.3%. Besides, in the assay on intact FGF23 (iFGF23) (Day 35), the “Intact FGF23, Change from baseline” value is −9.3%. In addition, in the assay with intact FGF23 (iFGF23), the “effect on iFGF23 levels” value is given as “no significant changes; also recorded: but not iron dextran induced a significant increase”; the “Intact FGF23, Day 1” value is 24.6 ± 1.9 pg/mL; the “Intact FGF23, Day 7” value came out at 27.5 ± 1.7 pg/mL; the “Intact FGF23, Day 14” value was 28.4 ± 2.1 pg/mL. Besides, the “Intact FGF23, Day 35” value with intact FGF23 (iFGF23) was found to be 28.3 ± 1.7 pg/mL.

With “polynuclear iron (III)-hydroxide 4(R)-(poly-(1→4)-O-α-glucopyranosyl)-oxy-2(R),3(S),5(R),6-tetrahydroxy-hexanoate [FCM]”, the “absolute difference in proportion with hemoglobin increase, FCM vs iron dextran” value in assay [1] (95% CI −23.2, 36.6%, p=0.79) is listed as 6.7%. Also, in assay [1], the “Mean increase in hepcidin from baseline to highest value” amounted to 33.4 ng/mL; the “effect of a single dose on hemoglobin and iron indices” value is “significantly increase”; the “proportion of group in which hemoglobin increased by 2.0 g/dL” value amounted to 60%; the “Hemoglobin increase ≧2.0 g/dL, n (%)” value is recorded as 15 (60) n (%). Further, in assay [1], the “Mean increase in ferritin from baseline to highest value” was found to be 306 ± 41; the “Mean increase in hemoglobin from baseline to highest value” was 2.0 ± 0.3 g/dL; the “Mean increase in transferrin saturation from baseline to highest value” came out at 68 ± 6.4%; the “effect on TSAT and serum hepcidin levels” value is “increased TSAT and serum hepcidin levels significantly”. Besides, the “serum hepcidin levels by day 7” value in assay [1] is “significantly increased”. Further, the “increase in serum ferritin by day 7 compared to iron dextran” value in assay [1] (thereafter levels similar) is “greater increase”. The “Intact FGF23, Change from baseline” value with intact FGF23 (iFGF23) (Day 1) is 128.0%. The “Intact FGF23, Change from baseline” value in the assay on intact FGF23 (iFGF23) (Day 7) was found to be 91.8%. For the same substance, the “Intact FGF23, Change from baseline” value with intact FGF23 (iFGF23) (Day 14) was 59.1%. In addition, in the assay on intact FGF23 (iFGF23) (Day 35), the “Intact FGF23, Change from baseline” value is given as 2.0%. For the same substance, in the assay on intact FGF23 (iFGF23), the “effect on iFGF23 levels” value was “increased significantly by day 1; also recorded: significant increase”; the “Intact FGF23, Day 1” value was determined as 65.2 ± 8.0 pg/mL; the “Intact FGF23, Day 7” value was found to be 54.9 ± 18.0 pg/mL; the “Intact FGF23, Day 14” value was 45.8 ± 6.9 pg/mL. The “Intact FGF23, Day 35” value in the assay with intact FGF23 (iFGF23) came to 28.1 ± 2.9 pg/mL. Also, the “iFGF23 in FCM subjects who developed serum phosphate<2.0 mg/dL vs the remaining” value in the assay on intact FGF23 (iFGF23) (stratified analysis) is given as “greater iFGF23 by day 1 that persisted through day 14”.
